Data from PMC6883931 (Frontiers in Molecular Neuroscience, 2019).
Values joined by “and” are separate entries in the source; they are usually repeats but may differ in a detail not shown here. Equal entries are not always repeated. Where two headings read alike, the source gives them in different places.

Tests used:
GlyR = system: GlyR; set-up: method as in Breitinger et al., 2016; conditions: ref Breitinger et al., 2016, cited from earlier work; for on-rate of current enhancement: saturating concentrations; for EC50: read-out: EC50 for augmentation of glycine-mediated responses
Male Swiss Webster mice [1] = assay: Tactile sensitivity (von Frey) test, paw withdrawal threshold; type: in vivo; conditions: for PWT ratio: individual mice and avg
Description: (§1) See Supplementary Material S1 for experimental details. On the day of the experiment, mice were weighed and then fasted for 5–6 h to reduce variability in initial blood glucose levels (BGL). Mice had been accustomed to the test apparatus for 2–3 h on two separate days before experiments. Two hours before testing, mice were acclimatized to the measuring apparatus. For hotplate tests, mice were accustomed to the testing condition by placing them one by one on a switched off hotplate at room temperature for the set cut off time of 30 s. One hour before testing, baseline measurements for touch sensitivity were recorded. For both experiments, mice were then injected according to protocol. Blood glucose level was measured before and after injections (Figure 3A).
Mice were divided into four experimental groups (see main text). The investigator performing the measurements was blinded to treatment groups and to the blood glucose readings. All mice were measured for their Paw withdrawal threshold (PWT) using von Frey filaments on at least one occasion before the testing day to reduce the stress or surprise from the experiment. We used the up-and-down method to determine pain withdrawal thresholds (PWT; Bradman et al., [2015]) with 8 mN as the starting value (see Supplementary Material for details). Baseline PWT values for each mouse were determined before treatment. […] Measurements were limited to the time window of 5 min after the second injection (strychnine or vehicle) due to the fast elimination kinetics of low doses of strychnine.
• (i) Baseline PWT determination for each mouse, 30 min prior to the experiment; • (ii) at time t = 0, mice were injected with glucose (2 g/kg) or vehicle • (iii) at t = 30 min, mice were injected with strychnine (0.2 or 0.5 mg/kg) or vehicle; • (iv) at t = 35 min pain-related behavior was assessed.
Von Frey Experiment – The investigator performing the measurements was blinded to treatment groups and to the blood glucose readings. All mice were measured for their paw withdrawal threshold using the Von Frey filaments on at least one occasion before the testing day. That was done to reduce the stress or surprise that might result from exposure to new conditions on the day of the experiment. A baseline reading for each mouse is also taken before the test with the consideration to leave at least one-day gab between baseline and experiment measurement to minimize any effect of repetitive measurement. […]
We used the up-and-down method to determine pain withdrawal thresholds (PWT) (Bradman et al., 2015). To assess the starting force, baseline 50% PWT was measured in five naïve mice (20-35 g) by application of von Frey hairs in an ascending order of their applied force. […] Baseline PWT values for each mouse were determined before treatment. […]

Male Swiss Webster mice [2] = assay: Hotplate test (55°C), latency until pain-related reaction; type: in vivo
Description: as §1
The investigator performing the measurements was blinded to treatment groups and to the blood glucose readings.

[3] = system: recombinant α1, α1-β, and α3 GlyRs; set-up: method as in Breitinger et al., 2015; Breitinger and Breitinger, 2016; conditions: HEK293 cells, ref Breitinger et al., 2015, 2016; cited from earlier work
[4] = biological target: T1, recombinant α3L GlyRs expressed in HEK293 cells (Homo sapiens, UniProt O75311); assay: Whole-cell patch-clamp recordings of GlyR-transfected HEK293 cells; type: cell-based; conditions: for EC50 / IC50: n = 7 cells; for EC50: mean ± SEM, read-out: EC50 of glycine-induced currents; for IC50: IC50 of strychnine inhibition; for IC50 / Ki: 60 μM glycine; for Ki: Ki of strychnine (Cheng-Prusoff)
T1 construct: expressed in transfected cells; host or cells: HEK293
Description: Current responses from GlyR-transfected HEK293 cells were measured at room temperature (21–23°C) at a holding potential of −50 mV using a HEKA EPC10 amplifier (HEKA Electronics, Lambrecht, Germany) controlled by Pulse software (HEKA Electronics). Recording pipettes were pulled from borosilicate glass (World Precision Instruments, Berlin, Germany) using a Sutter P-97 horizontal puller (Sutter, Novato, CA, USA). Solutions were applied using an Octaflow system (NPI electronics, Tamm, Germany). The external buffer consisted of 135 mM NaCl, 5.5 mM KCl, 2 mM CaCl2, 1.0 mM MgCl2, and 10 mM Hepes (pH adjusted to 7.4 with NaOH); the internal buffer was 140 mM CsCl, 1.0 mM CaCl2, 2.0 mM MgCl2, 5.0 mM EGTA, and 10 mM Hepes (pH adjusted to 7.2 with CsOH). […] Dose-response data were fitted to the Hill equation (see Supplementary Material) to determine EC50 and IC50.
Ki was calculated using the Cheng-Prusoff correction, significance was tested using one-way ANOVA with p < 0.05 considered significant. […] All data are means ± SEM; significance levels (relative to control) are indicated: *p ≤ 0.5; **p ≤ 0.01; ns, not significant.
Cell Culture and Transfection – HEK293 cells were grown in 10 cm tissue culture Petri dishes in Eagle minimal essential medium (EMEM) (Lonza, Basel, Switzerland) supplemented with 10% FBS (Invitrogen, Karlsruhe, Germany) and penicillin/streptomycin (Sigma-Aldrich, Munich, Germany) at 5% CO2 and 37 °C in a water saturated atmosphere. For electrophysiological experiments, cells were plated on acetone treated glass coverslips in 24 well plates. Transfection was performed 1 day after cell passage using polyethyleneimine (PEI) (Sigma-Aldrich, Munich, Germany): 0.75 µg of receptor DNA and 1.0 µg of green fluorescent protein DNA were mixed in 50 µl EMEM; in a second Eppendorf tube, 3.5 µl PEI was added to 50 µl EMEM, mixed and combined with the DNA solution. After 20 min incubation at room temperature, the transfection solution was added dropwise to the cells. Measurements were performed 1-3 days after transfection.
Electrophysiological Recordings and Data Analysis – Current responses from GlyR-transfected HEK293 cells were measured at room temperature (21-23°C) at a holding potential of -50 mV. Whole-cell recordings were performed using a HEKA EPC10 amplifier (HEKA Electronics, Lambrecht, Germany) controlled by Pulse software (HEKA Electronics). Recording pipettes were pulled from borosilicate glass (World Precision Instruments, Berlin, Germany) using a Sutter P-97 horizontal puller (Sutter, Novato, CA).

mice = conditions: cited from earlier work; for LD50: mice, Patocka, 2009

T1 sequence (O75311 34-464): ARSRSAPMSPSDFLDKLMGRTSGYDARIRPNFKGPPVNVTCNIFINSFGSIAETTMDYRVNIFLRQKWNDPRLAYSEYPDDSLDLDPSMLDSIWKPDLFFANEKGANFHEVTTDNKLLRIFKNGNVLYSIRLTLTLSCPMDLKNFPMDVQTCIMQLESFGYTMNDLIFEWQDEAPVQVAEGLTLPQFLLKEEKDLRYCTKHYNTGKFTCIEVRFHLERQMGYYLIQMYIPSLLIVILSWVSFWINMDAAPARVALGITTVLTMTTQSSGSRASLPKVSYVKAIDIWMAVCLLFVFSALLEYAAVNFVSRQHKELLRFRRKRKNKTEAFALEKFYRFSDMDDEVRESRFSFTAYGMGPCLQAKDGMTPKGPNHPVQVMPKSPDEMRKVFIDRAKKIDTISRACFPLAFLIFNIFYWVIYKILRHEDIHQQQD

OC[C@H]1O[C@@H](O[C@H]2[C@H](O)[C@@H](O)C(O)O[C@@H]2CO)[C@H](O)[C@@H](O)[C@H]1O (mixture of isomers) [Lactose, lactose]
on-rate of current enhancement (GlyR): ~ 1.5 h

O=C(CO)[C@@H](O)[C@H](O)[C@H](O)CO [Fructose, fructose]
EC50 (GlyR): 6 to 7 mM
on-rate of current enhancement (GlyR): < 0.5 h

OC[C@H]1OC(O)[C@H](O)[C@@H](O)[C@@H]1O (stereo partly shown) [Glucose, glucose]
time after which effects on pain-related behavior were fully developed (Male Swiss Webster mice [1]; glucose 2 g/kg IP): 20 min
average normalized latency time (Male Swiss Webster mice [2]; glucose 2 g/kg IP, no strychnine, normalized to baseline, mean ± SEM): 1.79 ± 0.18
normalized response time (Male Swiss Webster mice [2]; glucose 2 g/kg pretreatment followed by 0.2 mg/kg strychnine): 1.72 ± 0.44
normalized response time (Male Swiss Webster mice [2]; glucose 2 g/kg prior to 0.5 mg/kg strychnine challenge): 0.74 ± 0.15
EC50 (GlyR): 6 to 7 mM
on-rate of current enhancement (GlyR): < 0.5 h
reduction of EC50 value [3]: 2–4 fold

NCC(=O)O [Glycine, glycine]
EC50 ([4]; after overnight preincubation with 50 mM glucose): 49.9 ± 5.3 µM
EC50 ([4]; control, no glucose preincubation (5.5 mM glucose in medium)): 106 ± 16 µM

O=C1C[C@@H]2OCC=C3CN4CC[C@]56c7ccccc7N1[C@H]5[C@H]2[C@H]3C[C@H]46 [Strychnine, strychnine]
lethality (mice; 2 mg/kg IP, Swiss Webster mice, ref Maher et al., 2014): 85%
LD50 (mice; intraperitoneal (IP) injection, ref Prasad et al., 1981): 0.98 mg/kg
LD50 (mice; oral administration, ref Setnikar et al., 1960): 2 mg/kg
PWT ratio (Male Swiss Webster mice [1]; no glucose – Strychnine 0.2 mg/kg): 0.98 and 0.73 and 0.48 and 0.62 and 0.87 and 0.24 and 0.76 and 0.15
PWT ratio (Male Swiss Webster mice [1]; no glucose – Strychnine 0.5 mg/kg): 0.17 and 1.46 and 0.19 and 0.30 and 0.14
time after which notable effects on pain sensitivity were gone (Male Swiss Webster mice [1]; sub-lethal amounts of strychnine, IP): > 5 min
normalized time to response (Male Swiss Webster mice [2]; strychnine 0.2 mg/kg IP, no glucose): 0.63 ± 0.10
normalized response time (Male Swiss Webster mice [2]; strychnine 0.5 mg/kg IP, no glucose): 0.30 ± 0.07
IC50 ([4]; absence of glucose): 30.7 ± 2.8 nM
IC50 ([4]; cells preincubated with 50 mM glucose): 46.2 ± 5.8 nM
Ki ([4]; cells pretreated with 50 mM glucose): 19.8 ± 1.6 nM
Ki ([4]; control cells): 18.8 ± 1.4 nM

OC[C@H]1O[C@@](CO)(O[C@H]2O[C@H](CO)[C@@H](O)[C@H](O)[C@H]2O)[C@@H](O)[C@@H]1O [Sucrose, sucrose]
on-rate of current enhancement (GlyR): ~ 1.5 h
